Converted amounts (≈) assume the structure as drawn.
Key:
[1] = test system: Staphylococcus aureus-SMITH (GC 4543); assay: acute lethal infection in mice; assay type: in vivo; conditions: acute lethal infection, female CD-1 mice, intraperitoneal challenge, intravenous 30 min. after infection, 7 day survival
Procedure, shortened: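 Female CD-1 mice (20±2 g) got an intraperitoneal bacterial challenge lethal to untreated controls within 24–48 hr. Compound was dosed intravenously 30 min after infection, five mice per dose. ED50 was calculated from 7-day survival pooled across 3 tests.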

Enterococcus sp. = assay: in vitro antibacterial evaluation, MIC by broth dilution; assay type: cell-based; conditions: broth dilution, 18 hours at 35° C.; for MIC Enterococcus faecalis (ATCC 29212): strain ATCC 29212; for MIC Enterococcus faecium (GC 2243): strain GC 2243; for MIC Enterococcus faecalis (GC 4552): strain GC 4552; for MIC Enterococcus faecalis (GC 4553): strain GC 4553; for MIC Enterococcus faecalis (GC 4554): strain GC 4554; for MIC Enterococcus faecium (GC 4556): strain GC 4556; for MIC Enterococcus faecium (GC 4557): strain GC 4557; for MIC Enterococcus avium (GC 4558): strain GC 4558; for MIC Enterococcus faecalis (GC 6189): strain GC 6189
Procedure, shortened: (§1)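 Following National Committee for Clinical Laboratory Standards recommendations (M7-A2), susceptibility was measured by dilution in Muller-Hinton II […]. Bacteria were seeded at 5×10^5 CFU/mL against compound concentrations from 64 down to 0.06 μg/mL.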

Streptococcus sp. = assay: as above; assay type: cell-based; conditions: broth dilution, 18 hours at 35° C.
Procedure, shortened: as §1

Escherichia coli = assay: as above; assay type: cell-based
Procedure, shortened: as §1

Staphylococcus sp. = assay: as above; assay type: cell-based; conditions: broth dilution, 18 hours at 35° C.; for MIC Staphylococcus aureus (GC 1131): strain GC 1131
Procedure, shortened: as §1

Compound: CC(c1ccccc1)C1NC(=O)CNC(=O)C(CO)NC(=O)C(C(O)C2CNC(=N)N2C2OC(CO)C(O)C(O)C2O)NC(=O)C(C(O)C2CNC(=N)N2)NC(=O)C(Cc2ccc(OC3OC(CO)C(OC4OC5COC(c6cc7c(cc6Cl)OCO7)OC5C(O)C4O)C(O)C3O)cc2)NC1=O (stereo not drawn) [Example 158, Cyclo[glycyl-β-methylphenylalanyl-O-[4-O-[4,6-O-[(6-chloro-1,3-benzodioxol-5-yl)-methylene]hexopyranosyl]hexopyranosyl]tyrosyl-3-(2-iminoimidazolidin-4-yl)seryl-3-(3-hexopyranosyl-2-iminoimidazolidin-4-yl)serylseryl]]
- median effective dose (ED50), Staphylococcus aureus-SMITH (GC 4543) [1]: 0.14 mg/kg
- MIC Enterococcus faecalis (GC 2242) (Enterococcus sp.; Enterococcus faecalis (GC 2242)): 4 µg/mL (≈ 2.74 µM)
- MIC Enterococcus faecalis (GC 2691) (Enterococcus sp.; Enterococcus faecalis (GC 2691)): 4 µg/mL (≈ 2.74 µM)
- MIC Enterococcus faecalis (GC 3059) (Enterococcus sp.; Enterococcus faecalis (GC 3059)): 4 µg/mL (≈ 2.74 µM)
- MIC Enterococcus faecalis (ATCC 29212) (Enterococcus sp.; inoculum 5×10^5 CFU/mL): 4 µg/mL (≈ 2.74 µM)
- MIC Enterococcus faecium (GC 2243) (Enterococcus sp.; inoculum 5×10^5 CFU/mL): 4 µg/mL (≈ 2.74 µM)
- MIC Enterococcus faecalis (GC 4552) (Enterococcus sp.; inoculum 5×10^5 CFU/mL): 8 µg/mL (≈ 5.47 µM)
- MIC Enterococcus faecalis (GC 4553) (Enterococcus sp.; inoculum 5×10^5 CFU/mL): 4 µg/mL (≈ 2.74 µM)
- MIC Enterococcus faecalis (GC 4554) (Enterococcus sp.; inoculum 5×10^5 CFU/mL): 4 µg/mL (≈ 2.74 µM)
- MIC Enterococcus faecium (GC 4556) (Enterococcus sp.; inoculum 5×10^5 CFU/mL): 8 µg/mL (≈ 5.47 µM)
- MIC Enterococcus faecium (GC 4557) (Enterococcus sp.; inoculum 5×10^5 CFU/mL): 2 µg/mL (≈ 1.37 µM)
- MIC Enterococcus avium (GC 4558) (Enterococcus sp.; inoculum 5×10^5 CFU/mL): 4 µg/mL (≈ 2.74 µM)
- MIC Enterococcus faecalis (GC 6189) (Enterococcus sp.; inoculum 5×10^5 CFU/mL): 4 µg/mL (≈ 2.74 µM)
- MIC Enterococcus faecalis (ATCC 29212) (Enterococcus sp.): 4 µg/mL (≈ 2.74 µM)
- MIC Enterococcus faecalis (GC 2242) (Enterococcus sp.; strain GC 2242): 4 µg/mL (≈ 2.74 µM)
- MIC Enterococcus faecium (GC 2243) (Enterococcus sp.): 4 µg/mL (≈ 2.74 µM)
- MIC Enterococcus faecalis (GC 2691) (Enterococcus sp.; strain GC 2691): 4 µg/mL (≈ 2.74 µM)
- MIC Enterococcus faecalis (GC 3059) (Enterococcus sp.; strain GC 3059): 4 µg/mL (≈ 2.74 µM)
- MIC Enterococcus faecalis (GC 4552) (Enterococcus sp.): 8 µg/mL (≈ 5.47 µM)
- MIC Enterococcus faecalis (GC 4553) (Enterococcus sp.): 4 µg/mL (≈ 2.74 µM)
- MIC Enterococcus faecalis (GC 4554) (Enterococcus sp.): 4 µg/mL (≈ 2.74 µM)
- MIC Enterococcus faecium (GC 4556) (Enterococcus sp.): 8 µg/mL (≈ 5.47 µM)
- MIC Enterococcus faecium (GC 4557) (Enterococcus sp.): 2 µg/mL (≈ 1.37 µM)
- MIC Enterococcus avium (GC 4558) (Enterococcus sp.): 4 µg/mL (≈ 2.74 µM)
- MIC Enterococcus faecalis (GC 6189) (Enterococcus sp.): 4 µg/mL (≈ 2.74 µM)
- MIC Streptococcus agalactiae (GC 4564) (Streptococcus sp.; Streptococcus agalactiae (GC 4564)): 0.25 µg/mL (≈ 0.171 µM)
- MIC Streptococcus pneumoniae (ATCC 6301) (Streptococcus sp.; Streptococcus pneumoniae (ATCC 6301)): 0.12 µg/mL (≈ 0.0821 µM)
- MIC Streptococcus pneumoniae (GC 1894) (Streptococcus sp.; Streptococcus pneumoniae (GC 1894)): <0.06 µg/mL
- MIC Streptococcus pneumoniae (GC 4565) (Streptococcus sp.; Streptococcus pneumoniae (GC 4565)): <0.06 µg/mL
- MIC Streptococcus pyogenes (GC 4563) (Streptococcus sp.; Streptococcus pyogenes (GC 4563)): 0.25 µg/mL (≈ 0.171 µM)
- MIC Streptococcus pneumoniae (ATCC 6301) (Streptococcus sp.; strain ATCC 6301): 0.12 µg/mL (≈ 0.0821 µM)
- MIC Streptococcus pneumoniae (GC 1894) (Streptococcus sp.; strain GC 1894): <0.06 µg/mL
- MIC Streptococcus pyogenes (GC 4563) (Streptococcus sp.; strain GC 4563): 0.25 µg/mL (≈ 0.171 µM)
- MIC Streptococcus agalactiae (GC 4564) (Streptococcus sp.; strain GC 4564): 0.25 µg/mL (≈ 0.171 µM)
- MIC Streptococcus pneumoniae (GC 4565) (Streptococcus sp.; strain GC 4565): <0.06 µg/mL
- MIC Escherichia coli (ATCC 25922) (Escherichia coli; strain ATCC 25922, 18 hours at 35° C.): 64 µg/mL (≈ 43.8 µM)
- MIC Escherichia coli (GC 4559) (Escherichia coli; strain GC 4559, 18 hours at 35° C.): 64 µg/mL (≈ 43.8 µM)
- MIC Escherichia coli (GC 4560) (Escherichia coli; strain GC 4560, 18 hours at 35° C.): 1 µg/mL (≈ 0.684 µM)
- MIC Staphylococcus aureus (GC 1131) (Staphylococcus sp.; inoculum 5×10^5 CFU/mL): 2 µg/mL (≈ 1.37 µM)
- MIC Staphylococcus aureus (ATCC 29213) (Staphylococcus sp.; strain ATCC 29213): 2 µg/mL (≈ 1.37 µM)
- MIC Staphylococcus aureus (GC 1131) (Staphylococcus sp.): 2 µg/mL (≈ 1.37 µM)
- MIC Staphylococcus aureus (GC 3051) (Staphylococcus sp.; strain GC 3051): 1 µg/mL (≈ 0.684 µM)
- MIC Staphylococcus aureus (GC 3053) (Staphylococcus sp.; strain GC 3053): 2 µg/mL (≈ 1.37 µM)
- MIC Staphylococcus aureus (GC 4541) (Staphylococcus sp.; strain GC 4541): 1 µg/mL (≈ 0.684 µM)
- MIC Staphylococcus aureus (GC 4542) (Staphylococcus sp.; strain GC 4542): 1 µg/mL (≈ 0.684 µM)
- MIC Staphylococcus aureus-SMITH (GC 4543) (Staphylococcus sp.; strain GC 4543): 2 µg/mL (≈ 1.37 µM)
- MIC Staphylococcus aureus (GC 4544) (Staphylococcus sp.; strain GC 4544): 2 µg/mL (≈ 1.37 µM)
- MIC Staphylococcus aureus (GC 4545) (Staphylococcus sp.; strain GC 4545): 2 µg/mL (≈ 1.37 µM)
- MIC Staphylococcus haemolyticus (GC 4546) (Staphylococcus sp.; strain GC 4546): 0.5 µg/mL (≈ 0.342 µM)
- MIC Coagulase Negative Staphylococcus (GC 4547) (Staphylococcus sp.; strain GC 4547): 2 µg/mL (≈ 1.37 µM)
- MIC Coagulase Negative Staphylococcus (GC 4548) (Staphylococcus sp.; strain GC 4548): 1 µg/mL (≈ 0.684 µM)
- MIC Coagulase Negative Staphylococcus (GC 4549) (Staphylococcus sp.; strain GC 4549): 1 µg/mL (≈ 0.684 µM)
- MIC Coagulase Negative Staphylococcus (GC 4551) (Staphylococcus sp.; strain GC 4551): 2 µg/mL (≈ 1.37 µM)
- MIC Coagulase Negative Staphylococcus (GC 6257) (Staphylococcus sp.; strain GC 6257): 1 µg/mL (≈ 0.684 µM)
- MIC Staphylococcus aureus-SMITH (GC 4543) (Staphylococcus sp.; strain SMITH GC 4543): 2 µg/mL (≈ 1.37 µM)
